Measured values as given in patent US20090123447A1, “COMPOSITIONS AND METHODS TO INHIBIT RNA VIRAL REPRODUCTION” (priority 2007, published 2009).
Like-named read-outs stand apart in the source and are kept apart here.

Tests used:
[1] = system: intracellular calcium concentration ([Ca^2+]i); assay: [Ca^2+]i measurement with Indo-1 AM in SgPC2 cells; assay type: cell-based, human; settings: for change in [Ca^2+]i: SgPC2 cells
Method: Briefly, on the day of the experiment, cells were washed in Krebs-Ringer phosphate buffer (KRPH; pH 7.4, containing 1.0 mM MgSO4, 1.3 mM CaCl2, 10 mM Hepes, 5 mM glucose, 125 mM NaCl, 5 mM KCl, and 10 mM sodium phosphate) and subsequently loaded with 10-20 μM Indo-1 AM (70 μl/coverslip; Molecular Probes, Inc., Eugene, Oreg., USA) containing 10 μM probenecid (Molecular Probes) for 30 min at 37° C. The attached cells were washed and bathed in KRPH/probenecid at 4° C. or room temperature until further analysis. Then, coverslips were individually submerged into KRPH and preequilibrated inside the […] fluorimeter (Hitachi) in darkness for 3 min, and [Ca^2+]i was monitored continuously at 37° C., with excitation at […] and emission at 400 and 450 nm. H2O2 and other agents were injected at different time points, as indicated under Results. [Ca^2+]i was calculated as described. Rmax was determined by adding 8-16 μM digitonin and Rmin with 10 mM ethylene glycol-bis(β-aminoethyl)-N,N,N'-tetraacetic acid (EGTA). […] The baseline, which represented unstimulated cells scanned over time, was plotted along with other measurements or subtracted from the other plots. Cells were serum-depleted, 1 day before the experiment, by incubating them overnight in DMEM plus 0.5% FBS. […] Then, CaCl2 was added before determining the Rmax for each run.

[2] = system: JFH1 HCV (genotype 2a); assay type: cell-based, hepatitis C virus
Method: For viral RNA transfection, JFH1, JFH1/GND, and pSGR-JFH1-Luc were linearized with XbaI and used to synthesize the corresponding positive-sense stranded HCV RNA, as previously described (68). Then, 5×10^6 Huh7 cells were rinsed with Opti-Mem (Invitrogen), mixed briefly with 10-20 μg of the in vitro transcribed RNA in 0.4 ml of Opti-Mem, and then electroporated at 260 volts and 950 μF. […] Medium was changed daily. For infection with HCV, medium collected from JFH1 RNA-transfected cells were cleared of cell debris, as described, and added to naïve Huh7 cells. Typically, 1:2 or 3:2 ratio of the virus-containing medium and fresh cell culture medium were used.
JFH1/GND was used as the negative control. When L-buthionine S,R-sulfoximine (BSO) was used, the cells were pretreated with BSO for 16-24 hrs prior to the initiation of treatments.
Intracellular JFH1 HCV RNA content was also analyzed by qRT-PCR (Taqman), using ABI7300 real time PCR system and one step RT-PCR kit from Applied Biosystems. The forward primer was 5′-[…]-3′ (nt. 146 to 164) and the reverse primer, 5′-[…]-3′ (nt. 277 to 295). The probe was 5′[…]3′ (nt. 168 to 188) and was fluorogenically labeled with FAM (5′) and TAMRA (3′) (Biosearch Technologies, Novato, Calif.). Briefly, the reactions were carried out at 48° C. for 30 min for reverse transcription, followed by denaturation at 95° C. for 10 min, and then 50 cycles of 15 sec denaturation at 95° C. plus 60 sec of annealing and extension at 60° C. All samples were analyzed in duplicates or triplicates. In vitro RNA transcripts were used to generate standard curve to determine RNA copy numbers. The level of 18S rRNA was also analyzed, using manufacturer-optimized protocol, as the control.
To analyze the amount of the extracellular HCV RNA, medium from the cells were cleared by low-speed centrifugation and then, treated with RNaseA at room temperature. Then, the RNA samples were extracted, using Trizol LS Reagent (Invitrogen), and analyzed for HCV RNA content by qRT-PCR.

[3] = system: HCV replication complex (RC); assay: In vitro HCV replication assay with cytoplasmic lysates of SgPC2 cells; assay type: cell-based, hepatitis C virus; settings: for effect on the suppression of in vitro HCV replication by H2O2: pretreatment of SgPC2 cells before H2O2
Method: In vitro replication assay was carried out according to the protocol of Ali et al., with slight modifications. Briefly, SgPC2 cells were grown to approximately 50-60% confluence in 100-mm dishes. Then, […], and cytoplasmic lysates were prepared by gently lysing the cells in the incomplete replication buffer (prepared without dithiothreitol) immediately after treating the cells with lysolecithin-containing washing solution (150 mM sucrose, 30 mM Hepes, pH 7.4, 33 mM ammonium chloride, 7 mM KCl, 4.5 mM magnesium acetate, 250 μg/ml lysolecithin) for 1-2 min. Twenty to 50 μCi of [α-^32P]CTP (3000 Ci/mmol) and 1-2 μg of actinomycin D were added to 70 μl of these cytoplasmic lysates, and the replication reaction was allowed to proceed for 1 h at 30° C. Then, RNA was isolated by phenol:chloroform extraction and ethanol precipitation. The ^32P-labeled transcripts were then analyzed on a 1% formaldehyde agarose gel which was subsequently washed with H2O, dried, and analyzed with a phosphoimager.

[4] = system: newly synthesized HCV RNA; assay: 3H labeling of newly synthesized HCV RNA in SgPC2 cells; assay type: cell-based, hepatitis C virus; settings: 6 h
Method: One million SgPC2 cells were pretreated with 2 μM BAPTA-AM or DMSO alone for 1 h and then treated with 0 or 100 μM H2O2 in the presence of 100 μCi of [^3H]uridine (35-50 Ci/mmol; MP Biomedicals, Irvine, Calif., USA) and 4 μg/ml actinomycin D (Sigma-Aldrich) for 5 to 6 h and then lysed for the RNA isolation. RNA was analyzed on a 1% formaldehyde agarose gel, which was then treated with 1 M sodium salicylate for 20-30 min for fluorography. The RNA gel was also stained with ethidium bromide to visualize rRNA bands to serve as loading controls.

[5] = system: subgenomic HCV replicon of genotype 1b; assay: microbe, parasite or virus in culture; assay type: cell-based, hepatitis C virus
Method: Huh7 human hepatoma cells were cultured in Dulbecco's modified Eagle medium (DMEM; Invitrogen, Carlsbad, Calif., USA) supplemented with 10% fetal bovine serum (FBS; Invitrogen), 100 units/ml of penicillin, and 100 μg/ml of streptomycin in a 5% CO2 incubator. SgPC2 cells are G418-selected, pooled Huh7 cell clones that support the continuous replication of a subgenomic HCV replicon of genotype 1b and [29] (GenBank Accession No. AJ242652) that carries a S11791 adaptive mutation within the NS5A region. SgPC2 cells were maintained in the above medium supplemented with 0.5 mg/ml G418 (Invitrogen). G418 was removed at least 1 day before cell treatments.

[6] = biological target: T1, full-length NS5B (Hepatitis C virus genotype 1b, UniProt P26663); assay: NS5B RdRp assay, de novo RNA synthesis in vitro; assay type: biochemical
T1 construct: Full-length NS5B protein was purified from Escherichia coli; made in house; host or cells: Escherichia coli
T1 sequence (P26663 2420-3010): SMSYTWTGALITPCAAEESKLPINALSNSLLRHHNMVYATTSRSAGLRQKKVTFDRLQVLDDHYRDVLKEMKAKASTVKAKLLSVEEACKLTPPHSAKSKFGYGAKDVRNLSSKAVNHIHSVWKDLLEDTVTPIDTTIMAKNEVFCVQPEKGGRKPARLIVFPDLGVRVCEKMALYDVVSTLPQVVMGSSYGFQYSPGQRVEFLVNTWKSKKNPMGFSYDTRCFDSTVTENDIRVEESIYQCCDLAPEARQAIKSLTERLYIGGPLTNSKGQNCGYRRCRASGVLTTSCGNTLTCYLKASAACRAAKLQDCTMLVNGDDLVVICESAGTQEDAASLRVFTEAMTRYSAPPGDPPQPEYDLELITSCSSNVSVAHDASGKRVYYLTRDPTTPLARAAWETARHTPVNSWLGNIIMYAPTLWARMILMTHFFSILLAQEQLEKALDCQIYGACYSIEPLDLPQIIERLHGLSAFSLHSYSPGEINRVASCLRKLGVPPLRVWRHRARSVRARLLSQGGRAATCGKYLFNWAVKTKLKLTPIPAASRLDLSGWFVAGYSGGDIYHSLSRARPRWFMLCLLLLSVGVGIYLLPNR
From the text: Full-length NS5B protein was purified from Escherichia coli, as previously described, and was used to catalyze de novo RNA synthesis in vitro [36].

[7] = system: IP3
[8] = system: SgPC2 cells; settings: JC-1 and annexin V-FITC staining
Method: Mitochondrial membrane potential was measured with JC1, using a Guava cytometer (Guava Technologies, Inc.). Apoptosis was also monitored with annexin V-FITC, with a 96-Nexin kit from Guava Technologies, Inc.

[9] = system: SgPC2 cells
Method: Intracellular GSH concentration was determined using a GSH recycling assay and expressed as nmol/mg protein. ATP level was measured using the Somatic Cell ATP assay kit from Sigma-Aldrich, as previously described. Protein level was determined with a bicinchoninic acid kit (Pierce Biotechnology, Inc., Rockford, Ill., USA).

[10] = system: genomic HCV RNA; settings: Huh7 cells transfected with genomic HCV RNA, H2O2 24 h
Method: Then, 5×10^6 Huh7 cells were rinsed with DMEM, mixed briefly with 10-20 μg of the subgenomic replicon RNA in 0.4 ml of DMEM, and then electroporated at 220 V and 975 μF. Then, 1 million cells were seeded onto 60-mm cell culture dishes in DMEM containing 10% FBS. Medium was changed daily and, after 2-4 days, the cells were preincubated with 1,2-bis(2-aminophenoxy)ethane-N,N,N′,N′-tetraacetic acid tetrakis acetoxymethyl ester (BAPTA-AM) or vehicle control alone for 1 h. Then, the cells were exposed to H2O2 for 24 h, and the amount of the HCV RNA was analyzed by Northern blot (see below).
Total RNA was extracted from cells, using Trizol reagent (Invitrogen), following the manufacturer's protocol. Five to 20 μg of RNA was then subjected to Northern blot analysis using a ^32P-labeled double-stranded DNA probe prepared from nt 3669 to nt 6016 of the subgenomic replicon. For these and all other experiments, RNA and protein bands were quantified with a phosphoimager (Cyclone; Perkin-Elmer) or by densitometry using SigmaScan (Jandel Scientific) or IS2000R (Kodak). The intensities of the bands of interest were normalized against the control glyceraldehyde-3-phosphate dehydrogenase (GAPDH) mRNA.

In the case of N.N.N.N.N.N.N.N.N.N.N.N.N.N.[Cl-].[Cl-].[Cl-].[Cl-].[Cl-].[Cl-].[O-2].[O-2].[Ru+3].[Ru+3].[Ru+4] [ruthenium red, reference compound], the “basal calcium or magnitude/kinetics of the peroxide-induced calcium elevation” value [1] is reported as “no effect”.

In the case of N[C@@H](CCC(=O)N[C@@H](CS)C(=O)NCC(=O)O)C(=O)O [GSH, glutathione, reference compound], the “restoration of HCV RNA levels suppressed by BSO” value [2] is reported as “not able to restore HCV replication”.

With CC(=O)OCOC(=O)CN(CC(=O)OCOC(C)=O)c1ccccc1OCCOc1ccccc1N(CC(=O)OCOC(C)=O)CC(=O)OCOC(C)=O [BAPTA-AM, 1,2-bis(2-aminophenoxy)ethane-N,N,N′-tetraacetic acid tetrakis acetoxymethyl ester] the “effect on the suppression of in vitro HCV replication by H2O2” value [3] was “removed this suppression at both time points tested”, the “effect on the suppression of HCV RNA replication by H2O2 ([3H]uridine)” value ([4]; 2 μM BAPTA-AM pretreatment) was “completely removed the suppression” and the “amount of HCV RNA synthesized ([3H]uridine, actinomycin D)” value [4] was “no significant effect”. For the same compound, the “effect on the suppression of HCV RNA by GO” value ([5]; SgPC2 cells, GO 24 h, 130-200 U/ml catalase or 2 μM BAPTA-AM) was “alleviate the suppressive effect of GO”.

In the case of c1ccc2c(c1)[I+]c1ccccc1-2 [DPI, Diphenylene Iodonium, reference compound], the “effect on HCV RNA level / replication” value [5] is reported as “significantly elevated”.

[Ca+2].[Cl-].[Cl-] [CaCl2] was tested, and the “in vitro HCV RNA replication, agent added directly to the cytoplasmic lysates” value ([3]; added to untreated lysates before assay) was “could decrease”, the “in vitro de novo RNA synthesis by NS5B” value ([6]; 0.1 and 1 μM) was “only marginally suppressed” and the NS5B polymerase activity ([6]; higher concentrations) was “enhanced the polymerase activity”.

OO [H2O2, Hydrogen peroxide] was tested, and the “amount of HCV RNA synthesized ([3H]uridine, actinomycin D)” value [4] was “significantly decreased”, the “inositol 1,3-triphosphate (IP3) level” value [7] was “did not increase” and the “mitochondrial membrane potential or apoptosis” value [8] was “no significant effect”. For the same compound, the “AUC of [Ca^2+]i elevation” value ([1]; 100 μM H2O2, with BAPTA (2 μM BAPTA-AM pretreatment)) was 128.4±82.3 Ca^2+/min, the “AUC of [Ca^2+]i elevation” value ([1]; 100 μM H2O2, without BAPTA) was 935.9±58.9 Ca^2+/min and the “TG-induced calcium elevation after H2O2 pretreatment, % of control” value ([1]; H2O2 pretreatment 13 min, no extracellular calcium) was 9.2±2.6%. The “change in [Ca^2+]i” value [1] was “gradual rise”, the “AUC of peroxide-induced calcium elevation” value ([1]; with 1.3 mM extracellular calcium) was 1278.5±109.5 Ca^2+/min and the “AUC of peroxide-induced calcium elevation” value ([1]; without extracellular calcium) was 1105.1±238.1 Ca^2+/min. The “total ATP content, % of untreated control” value ([9]; 30 min of treatment) was 125.4±0.3%, the “total ATP content, % of untreated control” value ([9]; 24 h of treatment) was 97.3±8.25% and the “HCV RNA (normalized to GAPDH mRNA), % of untreated control” value [5] was 36.8±16.6%. For the same compound, the “effect on HCV RNA replication after 30 min of treatment” value [5] was “significant suppression”, the “suppression of HCV RNA level compared with IFN-γ” value [5] was “as effective as 100 to 2500 U/ml IFN-γ” and the IC50 ([5]; Hepatitis C virus, 24 h, read-out: IC50 of suppression of HCV RNA level) was about 25 µM. The “genomic HCV RNA, % of untreated control” value [10] was 34.0±4.0% and the “intracellular and extracellular HCV RNA levels” value [2] was “significantly decreased”.

With cyclosporin A [reference compound] the “basal calcium or magnitude/kinetics of the peroxide-induced calcium elevation” value [1] was “no effect”.

For C[C@H](CCC(=O)O)C[C@H](C)C[C@H](C)C(=O)/C=C(\O)[C@H](C)C[C@H](C)C/C=C/[C@@H](C)[C@@H](O)[C@@H](C)[C@@H](O)C[C@@H]1CC[C@@](C)([C@H]2CC[C@@](C)([C@@H](C)O)O2)O1 [ionomycin], the “effect on the suppression of in vitro HCV replication by H2O2” value [3] was “significantly alleviated”.

For C/C=C(/C)C(=O)O[C@H]1C(C)=C2[C@H]([C@@H]1OC(=O)CCCCCCC)[C@@](C)(OC(C)=O)C[C@H](OC(=O)CCC)[C@@]1(O)[C@H]2OC(=O)[C@@]1(C)O [TG, thapsigargin, reference compound], the activity at 0.4 µM ([1]; Homo sapiens, 400 nM TG pretreatment 10 min, no extracellular calcium, read-out: peroxide-induced calcium elevation after TG pretreatment, % of control) was 58.3 ± 8.4%, the “change in [Ca^2+]i” value [1] was “transient rise” and the “AUC of TG-induced calcium response in control cells” value ([1]; no extracellular calcium, no H2O2 pretreatment) was 772.3±189.3 Ca^2+/min.
